Reference: paper PMC6272605, “Development and Validation of a Docking-Based Virtual Screening Platform for the Identification of New Lactate Dehydrogenase Inhibitors” (Molecules, 2015)

Columns and labels:
LDH = tested on: LDH; design: method as in earlier work; settings: Table S1, active compounds included in the enriched dataset; LDH inhibitors binding the open conformation in the presence of NADH; cited from earlier work
[1] = biological target: T1, purified human lactate dehydrogenase isoform 5 (hLDH5) (Homo sapiens, UniProt P00338); assay: hLDH5 inhibition assay (pyruvate→lactate, NADH fluorescence); assay type: biochemical; settings: 200 μM pyruvate, 40 μM NADH, phosphate buffer pH 7.4, 15 min incubation
T1 construct: purchased Lee Biosolution, Inc., St. Louis, MO, USA
Method: LDH assays: The LDH inhibition properties of the selected compounds were evaluated against purified human lactate dehydrogenase isoform 5 (Lee Biosolution, Inc., St. Louis, MO, USA). The “forward” direction (pyruvate→lactate) of the lactate dehydrogenase reaction was conducted, and the kinetic parameters were measured by fluorescence (emission wavelength at 460 nm, excitation wavelength at 340 nm) to monitor the amount of consumed NADH. Assays were carried out in wells containing 200 μL of a reagent solution dissolved in 100 mM phosphate buffer (pH = 7.4). For the IC50 calculations of the compounds, seven different concentrations (in duplicate for each concentration) of the isolated compounds were used to produce the concentration-response curve. All of the compounds were tested in the presence of 200 μM pyruvate and 40 μM NADH. Any background fluorescence likelihood of the tested samples, or NADH fluorescence quenching, was subtracted. In addition to the sample test wells, maximum and minimum controls were also included in each plate. After 15 min of incubation, the final measurements were carried out by using a Victor X3 Microplates Reader (PerkinElmer®). IC50 values were produced using GraphPad Prism software.

SMILES	IC50 [1] [µM]	IC50 (LDH) [µM]
Cc1nc2ccc(NC(=O)CCNC(=O)CCCc3ccc(CC(C(=O)O)C(=O)O)cc3)cc2s1 [Compound 2]	–	12.1
C[C@@H](Nc1nc(-c2cc(C(=O)O)ccc2Cl)cnc1N)c1ccccc1 [Compound 3]	–	0.48
Nc1ccc(C(=O)O)cc1 [Compound 4]	–	0.75
COC(=O)c1ccc(N)cc1 [Compound 5]	–	0.71
COC(=O)c1ccc(NCCO)cc1 [Compound 6]	–	0.65
COC(=O)c1ccc(NS(=O)(=O)c2ccc(C)cc2)cc1 [Compound 7]	–	7.4
NCC(O)c1ccccc1 (centres unmarked) [Compound 8]	–	4
O=C1NCC(c2ccccc2)O1 (centres unmarked) [Compound 9]	–	14
CC(C)(C)OC(=O)CN1CC(c2ccccc2)OC1=O (centres unmarked) [Compound 10]	–	10
O=c1cc2oc(O)c3cc(O)c(O)c(O)c3c-2oc1=O [galloflavin]	91.7 ± 10.7	–

More lines, main results first:

IC50 [1] [µM]	SMILES	IC50 (LDH) [µM]
51.7 ± 4.2	O=C(O)c1cc2c(C(F)(F)F)cc(-c3ccccc3)cc2n1O [NHI-1]	–
> 500	O=C(O)c1ccc(NCCO)cc1 [VS1, 4-((2-Hydroxyethyl)amino)benzoic acid]	–
> 500	Cc1ccc(S(=O)(=O)Nc2ccc(C(=O)O)cc2)cc1 [VS2, 4-(4-Methylphenylsulfonamido)benzoic acid]	–
> 500	O=C(O)CN1CC(c2ccccc2)OC1=O (centres unmarked) [VS3, 2-(2-Oxo-5-phenyloxazolidin-3-yl)acetic acid]	–
> 500	O=C(O)CCCC(=O)Nc1ccccc1 [VS4]	–
> 500	Cc1ccc(C)c(C(O)C(=O)O)c1 (centres unmarked) [VS5]	–
246 ± 10.8	CC(C)C(NC(=O)OCc1ccccc1)C(=O)Nc1ccccc1 (centres unmarked) [VS6]	–
> 500	O=C(O)CCC(=O)c1ccc(F)cc1 [VS7]	–
269 ± 58.1	COC(=O)C(NC(=O)c1cc([N+](=O)[O-])cc([N+](=O)[O-])c1)c1ccccc1 (centres unmarked) [VS8]	–
> 500	Cc1ccc(C(N)C(=O)O)cc1 (centres unmarked) [VS10]	–
